Entries after “also recorded” stand apart in the source; their conditions may differ.
Tests used:
alveolar bone = assay: Clinical cases: topical tray delivery to the periodontal pocket, alveolar bone and gingival tissue regrowth; assay type: in vivo, patient
From the text: (§1) One exemplary method will now be described. An initial examination determines the conditions of the patient's periodontal disease. Models of the patient along with their periodontal probing is forwarded to a laboratory registered to make the custom formed medical device (Perio Tray), which is capable of delivering about 1.7% hydrogen peroxide gel (Perio Gel) to the diseased tissue. […] The depth of the biofilm and the tissue damage that exist determines the frequency and duration of usage. Patients with severe tissue damage (6 mm or greater) use the Perio Tray about 4 times a day. Patients with moderate damage (3 mm to 6 mm) use the Perio Tray about 3 times a day and patients maintain their health using the trays once or twice a day for about 15 minutes.
After the photographs of FIGS. 12A, 14A, 16A, and 18A were taken in 2004, the patient began a treatment as described above that included regular direct/topical medication delivery to the a to the gingival sulcus and/or periodontal pocket 37 in 2004 delivering doxycycline subgingival and interproximal with the medicament delivery tray.
The fact teeth appear longer as we age is supported in the literature. This is explained as a greater action of osteoclasts as compared to the cellular activity of osteoblasts with a resultant decrease in alveolar bone 40B around the patient's teeth 10 with an accompanying loss of gingival tissue 24B appearing as receding gum tissue 24B and the exposure of a greater root surface making the teeth 10 appear longer.

osteoclasts = assay: Initial study of osteoclastic and osteoblastic activity on exposure to doxycycline; assay type: cell-based; conditions: exposed to doxycycline
From the text: Doxycycline bonds to internal and external calcium ions causing osteoclasts to detach from the bone, thus decreasing or stopping bone loss. […] The stoppage of bone loss and the maintenance of bone regeneration results in a net gain of new bone over time as long as the doxycycline is continually delivered to the bone/tissue interface with the currently disclosed method.

oral biofilm = assay: Penetration and eradication of oral biofilm by hydrogen peroxide gel
From the text: as §1

[1] = oxygen delivered directly to the tissues

Structure (SMILES) | tooth mobility (alveolar bone; case studies, direct delivery to the periodontal pocket) | formation of new osteoclasts by precursor cells (alveolar bone; clinic tests) | bone loss and bone regeneration (alveolar bone; delivery to gingival sulcus or periodontal pocket) | attachment of osteoclasts to bone (alveolar bone; lengthy clinic tests) | cellular activity of osteoblasts (alveolar bone; lengthy clinic tests) | alveolar bone (radiographs) (alveolar bone; patient treated 1976 to 2012, hydrogen peroxide and topically applied doxycycline) | formation of new osteoclasts from osteoclastic precursor cells (osteoclasts) | osteoblastic activity (osteoclasts) | osteoclastic activity (osteoclasts) | kill of biofilm bacteria (oral biofilm) [%] | eradication of biofilm bacteria (biofilm bacteria; in 14 to 17 days) [%] | time to bring to an end the facultative anaerobes (biofilm bacteria; [1]) [days] | time to kill the obligate anaerobes (biofilm bacteria; [1]) [days]
C[C@H]1c2cccc(O)c2C(=O)C2=C(O)[C@]3(O)C(=O)C(C(N)=O)=C(O)[C@@H](N(C)C)[C@@H]3[C@@H](O)[C@@H]21 [doxycycline] | decrease | completely stopped; also recorded: completely abrogates | stops bone loss and augments bone regeneration | inhibit | maintain or increase | regrown and increased | completely abrogated | augmentation | decrease | – | – | – | –
OO [hydrogen peroxide] | – | – | – | – | – | – | – | – | – | 99.999 | 99.98 | 7 | 2
